± gives the expanded uncertainty stated by the source.
Key:
[1] = wn = mass fraction of the nth substance listed; conditions: 101 kPa, Liquid; for mass density: Pycnometric method; for viscosity: Capillary tube (Ostwald / Ubbelohde) method
[2] = 101 kPa, Liquid, Capillary tube (Ostwald / Ubbelohde) method
[3] = mn = molality of the nth substance listed, in mol/kg; conditions: 101 kPa, Liquid, m2 = 0; for viscosity: Capillary tube (Ostwald / Ubbelohde) method

| Compound | mass density ([1]; 293.15 K, w1 = 0.025) [kg/m3] | mass density ([1]; 293.15 K, w1 = 0.05) [kg/m3] | viscosity ([1]; 298.15 K, w1 = 0.025) [mPa·s] | viscosity ([1]; 298.15 K, w1 = 0.05) [mPa·s] | mass density ([1]; 298.15 K, w1 = 0.025) [kg/m3] | mass density ([1]; 298.15 K, w1 = 0.05) [kg/m3] | viscosity ([1]; 303.15 K, w1 = 0.025) [mPa·s] | viscosity ([1]; 303.15 K, w1 = 0.05) [mPa·s] | mass density ([1]; 303.15 K, w1 = 0.025) [kg/m3] | mass density ([1]; 303.15 K, w1 = 0.05) [kg/m3] | viscosity ([1]; 308.15 K, w1 = 0.025) [mPa·s] | viscosity ([1]; 308.15 K, w1 = 0.05) [mPa·s] | mass density ([1]; 308.15 K, w1 = 0.025) [kg/m3] | mass density ([1]; 308.15 K, w1 = 0.05) [kg/m3] | viscosity ([1]; 313.15 K, w1 = 0.025) [mPa·s] | viscosity ([1]; 313.15 K, w1 = 0.05) [mPa·s] | mass density ([1]; 313.15 K, w1 = 0.025) [kg/m3] | mass density ([1]; 313.15 K, w1 = 0.05) [kg/m3] | viscosity ([1]; 318.15 K, w1 = 0.025) [mPa·s] | viscosity ([1]; 318.15 K, w1 = 0.05) [mPa·s] | also measured |
| --- | --- | --- | --- | --- | --- | --- | --- | --- | --- | --- | --- | --- | --- | --- | --- | --- | --- | --- | --- | --- | --- |
| O=C[C@H](O)[C@@H](O)[C@H](O)CO [D-xylose] + O | 1007.24 ± 0.33 | 1015.93 ± 0.34 | 0.9096 ± 0.037 | 0.964 ± 0.039 | 1005.63 ± 0.35 | 1014.27 ± 0.35 | 0.8077 ± 0.033 | 0.8547 ± 0.035 | 1004.03 ± 0.36 | 1012.62 ± 0.36 | 0.7269 ± 0.029 | 0.7637 ± 0.031 | 1002.43 ± 0.37 | 1010.96 ± 0.38 | 0.6571 ± 0.027 | 0.6869 ± 0.028 | 1000.84 ± 0.39 | 1009.31 ± 0.39 | 0.5992 ± 0.024 | 0.6253 ± 0.025 | mass density ([1]; 318.15 K, w1 = 0.025): 999.23 ± 0.4 kg/m3; mass density ([1]; 318.15 K, w1 = 0.05): 1007.66 ± 0.41 kg/m3 |
| O=C[C@H](O)[C@@H](O)[C@@H](O)CO [L-arabinose] + O | 1007.35 ± 0.33 | 1016.09 ± 0.34 | 0.9141 ± 0.037 | 0.9695 ± 0.039 | 1005.77 ± 0.35 | 1014.44 ± 0.35 | 0.8116 ± 0.033 | 0.8573 ± 0.035 | 1004.18 ± 0.36 | 1012.79 ± 0.36 | 0.7304 ± 0.029 | 0.7658 ± 0.031 | 1002.6 ± 0.37 | 1011.13 ± 0.38 | 0.6591 ± 0.027 | 0.689 ± 0.028 | 1001.01 ± 0.39 | 1009.46 ± 0.39 | 0.6006 ± 0.024 | 0.6295 ± 0.025 | mass density ([1]; 318.15 K, w1 = 0.025): 999.43 ± 0.4 kg/m3; mass density ([1]; 318.15 K, w1 = 0.05): 1007.8 ± 0.41 kg/m3 |
| O [water] | – | – | – | – | – | – | – | – | – | – | – | – | – | – | – | – | – | – | – | – | viscosity ([2]; 298.15 K): 0.8903 ± 0.036 mPa·s; viscosity ([2]; 303.15 K): 0.7973 ± 0.032 mPa·s; viscosity ([2]; 308.15 K): 0.719 ± 0.029 mPa·s; viscosity ([2]; 313.15 K): 0.6526 ± 0.026 mPa·s; viscosity ([2]; 318.15 K): 0.5972 ± 0.024 mPa·s |
| O [water] + N=C(N)NCCC[C@H](N)C(=O)O | – | – | – | – | – | – | – | – | – | – | – | – | – | – | – | – | – | – | – | – | viscosity ([3]; 298.15 K): 0.8903 ± 0.036 mPa·s; viscosity ([3]; 303.15 K): 0.7973 ± 0.032 mPa·s; viscosity ([3]; 308.15 K): 0.719 ± 0.029 mPa·s; mass density ([3]; 308.15 K, Pycnometric method): 994.07 ± 0.35 kg/m3; viscosity ([3]; 313.15 K): 0.6526 ± 0.026 mPa·s; viscosity ([3]; 318.15 K): 0.5972 ± 0.024 mPa·s |
